Patent US12018059B2, “Human amylin analog polypeptides and methods of use” (Intarcia Therapeutics, Inc., priority 2018, dated 2024)
≈ marks a conversion by molar mass, not a printed value. Where two headings read alike, the source gives them in different places. Starred links: 1 amine or outer side, 2 acyl side, 3 side chain; linkers in the order of their positions; H or OH if unused. Positions of bridges follow the written chain, without caps; N, C: chain ends. Non-standard residues stand in square brackets, D forms with d. Residues, ends and D or L forms follow the SMILES beside them. Groups on a side chain read outwards from the residue. *: point of attachment. X2 = O=C(O)CCCCCCCCCCCCCCCCC(=O)N[C@@H](CCC(=O)NCOCCOCC(=O)NCOCCOCC(=O)*)C(=O)O; γGlu = O=C(O)[C@H](CCC(=O)[*:2])N[*:1]; Palmitoyl = CCCCCCCCCCCCCCCC(=O)*; AEEA = NCCOCCOCC(=O)O

Key:
[1] = target: human amylin 3 receptor (hAMY3R) (Homo sapiens, UniProt O60896+P30988); assay: cAMP accumulation functional assay in HEK293-CNG cells expressing hAMY3R; assay type: cell-based
Protocol: (§1) In the presence of the non-specific cAMP/cGMP phosphodiesterase inhibitor 3-isobutyl-1-methylxanthine (IBMX), accumulating cAMP can be measured in vitro using common detection methods. Thus, it is possible to estimate an in vitro potency (pEC50) for peptides activating each of these receptors using fit dose-response curves for cAMP accumulation.
(§2) Cells were carried in growth media for no more than 10 passages prior to testing.
(§3) Peptides were serially diluted in the same buffer as above for each given assay condition. Two assay control solutions consisting of 50 mcM forskolin (cAMP system maximum) or assay buffer only (cAMP system minimum) were also prepared in the appropriate stimulation buffers. Five microliters of each peptide-concentration, or assay control was added to triplicate wells and incubated for thirty minutes at room temperature. During this incubation step a 4× europium labelled cAMP tracer solution and a 4× Ulight®-anti-cAMP solution (consisting of an anti-cAMP monoclonal antibody labelled with Ulight™ dye) was prepared according to the manufacturer's protocol (PerkinElmer LANCE Ultra cAMP kit). Following this incubation, 5 mcL europium labelled cAMP and 5 mcL Ulight anti-cAMP antibody was added to wells. The plate was covered with an adhesive cover to prevent evaporation and incubated for 60 minutes at room temperature in the dark. Plates were read on an Envision fluorescent plate reader (PerkinElmer).
(§4) Test values were first normalized to the forskolin induced cAMP system maximum and system minimum averaged values in Excel using the formula: (test value−system minavg)/(system maxavg−system minavg)*100. Normalized test values represent a baseline corrected percentage of the system maximum cAMP response induced by forskolin. Normalized data was analyzed from triplicate tests and used to estimate the EC50 for each peptide on each receptor. Data was fit in GraphPad Prism software (v7.04) using a 4-parameter logistic curve model: Y=Bottom+(Top−Bottom)/(1+10^((Log EC50−X))). The Hill slope was constrained to 1.0. EC50 values were converted to pEC50 values using the formula: pEC50=−Log (EC50).

[2] = target: T1, human calcitonin receptor (hCTR) (Homo sapiens, UniProt P30988); assay: cAMP accumulation functional assay in HEK293-CNG cells expressing hCTR; assay type: cell-based
T1 sequence (P30988 25-474): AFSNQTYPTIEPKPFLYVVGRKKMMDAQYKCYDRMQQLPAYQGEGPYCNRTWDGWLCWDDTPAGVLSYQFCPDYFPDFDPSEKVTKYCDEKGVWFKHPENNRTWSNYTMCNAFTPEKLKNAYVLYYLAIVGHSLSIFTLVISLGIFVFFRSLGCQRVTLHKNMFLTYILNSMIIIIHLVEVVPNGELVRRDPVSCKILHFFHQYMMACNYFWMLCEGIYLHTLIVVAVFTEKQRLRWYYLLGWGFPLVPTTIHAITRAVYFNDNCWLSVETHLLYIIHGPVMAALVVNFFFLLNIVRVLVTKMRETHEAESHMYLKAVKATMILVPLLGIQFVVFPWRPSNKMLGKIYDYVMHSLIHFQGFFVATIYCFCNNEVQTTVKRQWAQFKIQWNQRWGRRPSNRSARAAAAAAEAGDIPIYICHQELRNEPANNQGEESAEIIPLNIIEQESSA
Protocol: as §1, §2, §3, §4

[3] = in vivo; parameters: species or system Sprague-Dawley rats; conditions: rat, iv, 0.033 mg/kg
How it was run: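 Male Sprague-Dawley rats, non-fasted (n=3), given peptide in saline as 1-h IV or SC infusion at 0.033 mg/kg, or SC bolus at 0.3 mg/kg; jugular blood to 48 h into K2EDTA plus protease inhibitors. Plasma extracted by precipitation or WCX solid-phase extraction, quantified by UPLC-MS/MS against standards in matching rat plasma.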

[4] = Acute food intake inhibition after SC bolus injection (BioDAQ); conditions: Long Evans rats on 45% high fat diet
[5] = Solubility of amylin analog polypeptides (visual inspection, room temperature); assay type: physicochemical
Protocol: The analog polypeptides described herein were tested for solubility in saline 20% DMSO in water (i.e., bioassay buffer) or in aqueous (DI water) at room temperature. Samples were visually inspected for clarity of the sample, any appearance of turbidity or haziness.

Chain of human amylin 3 receptor (hAMY3R) (O60896 24-148, one chain of several): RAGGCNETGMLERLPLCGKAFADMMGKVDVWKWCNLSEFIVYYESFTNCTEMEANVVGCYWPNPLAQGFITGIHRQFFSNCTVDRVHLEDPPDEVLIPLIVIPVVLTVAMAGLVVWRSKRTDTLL

SMILES | EC50 ([1]; 4% HSA, read-out: pEC50 hAMY3R 4% HSA (converted)) | EC50 ([1]; pEC50 hAMY3R 0.1% HSA, 0.1% HSA) | EC50 ([2]; hCTR 0% HSA, 0% HSA, read-out: pEC50 hCTR 0% HSA (converted)) | EC50 ([2]; hCTR 0.1% HSA, 0.1% HSA) | EC50 ([2]; hCTR 4% HSA, 4% HSA, read-out: pEC50 hCTR 4% HSA (converted)) | Vd [3] | clearance [3] | half-life [3] | Acute Food Intake % Inhibition vs vehicle ([4]; 0-24 hr after acute SC dosing) | solubility ([5]; Solubility) | solubility ([5]; TFA salt, DI H2O, room temperature, read-out: Solubility) | Acute Food Intake % Inhibition vs vehicle ([4]; 25-48 hr after acute SC dosing)
CCCCCCCCCCCCCCCC(=O)N[C@@H](CCC(=O)N[C@@H](CCC(=O)N[C@@H](CCC(=O)N[C@@H](CCC(=O)NCCOCCOCC(=O)NCCOCCOCC(=O)N[C@@H](CCC(=O)NCCCC[C@H](NC(=O)[C@H](CCC(=O)O)NC(=O)[C@H](CC(N)=O)NC(=O)[C@H](C)NC(=O)[C@H](CC(C)C)NC(=O)[C@H](CCCNC(=N)N)NC(=O)[C@H](CCC(N)=O)NC(=O)[C@@H](NC(=O)[C@H](C)NC(=O)[C@@H]1CSSC[C@H](NC(=O)[C@@H](N)CO)C(=O)N[C@@H](CC(N)=O)C(=O)N[C@@H]([C@@H](C)O)C(=O)N[C@@H](CO)C(=O)N[C@@H]([C@@H](C)O)C(=O)N1)[C@@H](C)O)C(=O)N[C@@H](Cc1c[nH]cn1)C(=O)N[C@@H](CCCCN)C(=O)N[C@@H](CO)C(=O)N[C@@H](CO)C(=O)N[C@@H](CC(N)=O)C(=O)N[C@@H](CC(N)=O)C(=O)N[C@@H](Cc1ccccc1)C(=O)NCC(=O)N1CCC[C@H]1C(=O)N[C@H](C(=O)N[C@@H](CC(C)C)C(=O)N1CCC[C@H]1C(=O)N1CCC[C@H]1C(=O)N[C@H](C(=O)N[C@@H](CCCCN)C(=O)N[C@H](C(=O)NCC(=O)N[C@@H](CO)C(=O)N[C@@H](CCC(=O)O)C(=O)N[C@H](C(=O)N[C@@H](Cc1ccc(O)cc1)C(N)=O)[C@@H](C)O)C(C)C)[C@@H](C)O)[C@@H](C)CC)C(=O)O)C(=O)O)C(=O)O)C(=O)O)C(=O)O [Compound A5] (H-SCNTSTCATQRLANEK([γGlu-AEEA-AEEA-γGlu-γGlu-γGlu-γGlu-Palmitoyl])HKSSNNFGPILPPTKVGSETY-NH2; disulfide 2-7; N-terminus assumed) | 0.631 nM | 0.0158 nM | 0.0158 nM | 0.316 nM | 15.8 nM | 0.137 L/kg | 0.135 mL/min/kg | 15 h | 37% | – | – | –
CCCCCCCCCCCCCCCC(=O)N[C@@H](CCC(=O)N[C@@H](CCC(=O)N[C@@H](CCC(=O)N[C@@H](CCC(=O)NCCCC[C@@H](NC(=O)[C@H](CCC(=O)O)NC(=O)[C@H](CC(N)=O)NC(=O)[C@H](C)NC(=O)[C@H](CC(C)C)NC(=O)[C@H](CCCNC(=N)N)NC(=O)[C@H](CCC(N)=O)NC(=O)[C@@H](NC(=O)[C@H](C)NC(=O)[C@@H]1CSSC[C@H](NC(=O)[C@@H](N)CO)C(=O)N[C@@H](CC(N)=O)C(=O)N[C@@H]([C@@H](C)O)C(=O)N[C@@H](CO)C(=O)N[C@@H]([C@@H](C)O)C(=O)N1)[C@@H](C)O)C(=O)N[C@@H](Cc1c[nH]cn1)C(=O)N[C@@H](CCCCN)C(=O)N[C@@H](CO)C(=O)N[C@@H](CO)C(=O)N[C@@H](CC(N)=O)C(=O)N[C@@H](CC(N)=O)C(=O)N[C@@H](Cc1ccccc1)C(=O)NCC(=O)N1CCC[C@H]1C(=O)N[C@H](C(=O)N[C@@H](CC(C)C)C(=O)N1CCC[C@H]1C(=O)N1CCC[C@H]1C(=O)N[C@H](C(=O)N[C@@H](CCCCN)C(=O)N[C@H](C(=O)NCC(=O)N[C@@H](CO)C(=O)N[C@@H](CCC(=O)O)C(=O)N[C@H](C(=O)N[C@@H](Cc1ccc(O)cc1)C(N)=O)[C@@H](C)O)C(C)C)[C@@H](C)O)[C@@H](C)CC)C(=O)O)C(=O)O)C(=O)O)C(=O)O [Compound A66] (H-SCNTSTCATQRLANE[dK]([γGlu-γGlu-γGlu-γGlu-Palmitoyl])HKSSNNFGPILPPTKVGSETY-NH2; disulfide 2-7) | – | – | – | – | – | 0.194 L/kg | 0.259 mL/min/kg | 9.59 h | – | 78.3 mg/mL (≈ 16.5 mM) | – | –
CCCCCCCCCCCCCCCC(=O)N[C@@H](CCC(=O)N[C@@H](CCC(=O)N[C@@H](CCC(=O)NCCCC[C@@H](NC(=O)[C@H](CCC(=O)O)NC(=O)[C@H](CC(N)=O)NC(=O)[C@H](C)NC(=O)[C@H](CC(C)C)NC(=O)[C@H](CCCNC(=N)N)NC(=O)[C@H](CCC(N)=O)NC(=O)[C@@H](NC(=O)[C@H](C)NC(=O)[C@@H]1CSSC[C@H](NC(=O)[C@@H](N)CO)C(=O)N[C@@H](CC(N)=O)C(=O)N[C@@H]([C@@H](C)O)C(=O)N[C@@H](CO)C(=O)N[C@@H]([C@@H](C)O)C(=O)N1)[C@@H](C)O)C(=O)N[C@@H](Cc1c[nH]cn1)C(=O)N[C@@H](CCCCN)C(=O)N[C@@H](CO)C(=O)N[C@@H](CO)C(=O)N[C@@H](CC(N)=O)C(=O)N[C@@H](CC(N)=O)C(=O)N[C@@H](Cc1ccccc1)C(=O)NCC(=O)N1CCC[C@H]1C(=O)N[C@H](C(=O)N[C@@H](CC(C)C)C(=O)N1CCC[C@H]1C(=O)N1CCC[C@H]1C(=O)N[C@H](C(=O)N[C@@H](CCCCN)C(=O)N[C@H](C(=O)NCC(=O)N[C@@H](CO)C(=O)N[C@@H](CC(N)=O)C(=O)N[C@H](C(=O)N[C@@H](Cc1ccc(O)cc1)C(N)=O)[C@@H](C)O)C(C)C)[C@@H](C)O)[C@@H](C)CC)C(=O)O)C(=O)O)C(=O)O [Compound A67] (H-SCNTSTCATQRLANE[dK]([γGlu-γGlu-γGlu-Palmitoyl])HKSSNNFGPILPPTKVGSNTY-NH2; disulfide 2-7) | – | – | – | – | – | 0.198 L/kg | 0.357 mL/min/kg | 7.14 h | – | – | 70.6 mg/mL | –
CC[C@H](C)[C@H](NC(=O)[C@@H]1CCCN1C(=O)CNC(=O)[C@H](Cc1ccccc1)NC(=O)[C@H](CC(N)=O)NC(=O)[C@H](CC(N)=O)NC(=O)[C@H](CO)NC(=O)[C@H](CO)NC(=O)[C@H](CCCCN)NC(=O)[C@H](Cc1c[nH]cn1)NC(=O)[C@H](CC(C)C)NC(=O)[C@H](CCCCNC(=O)COCCOCNC(=O)COCCOCNC(=O)CC[C@H](NC(=O)CCCCCCCCCCCCCCCCC(=O)O)C(=O)O)NC(=O)[C@H](CC(N)=O)NC(=O)[C@H](C)NC(=O)[C@H](CC(C)C)NC(=O)[C@H](CCCNC(=N)N)NC(=O)[C@H](CCC(N)=O)NC(=O)[C@@H](NC(=O)[C@H](C)NC(=O)[C@@H]1CSSC[C@H](NC(=O)[C@@H](N)CO)C(=O)N[C@@H](CC(N)=O)C(=O)N[C@@H]([C@@H](C)O)C(=O)N[C@@H](CO)C(=O)N[C@@H]([C@@H](C)O)C(=O)N1)[C@@H](C)O)C(=O)N[C@@H](CC(C)C)C(=O)N1CCC[C@H]1C(=O)N1CCC[C@H]1C(=O)N[C@H](C(=O)N[C@@H](CCCCN)C(=O)N[C@H](C(=O)NCC(=O)N[C@@H](CO)C(=O)N[C@@H](CCC(=O)O)C(=O)N[C@H](C(=O)N[C@@H](Cc1ccc(O)cc1)C(N)=O)[C@@H](C)O)C(C)C)[C@@H](C)O [Compound A98] (H-SCNTSTCATQRLANK(X2)LHKSSNNFGPILPPTKVGSETY-NH2; disulfide 2-7; N-terminus assumed) | – | – | – | – | – | 0.159 L/kg | 0.119 mL/min/kg | 17.4 h | 23% | – | – | 24%
